The source of these data is ChEMBL document CHEMBL1949665, “Pyrazolo[1,5-a]pyridines as p38 kinase inhibitors” (Org Lett, 2005).

The assay is described as follows: Inhibition of p38 kinase.

Turning to `CN(C)C(=O)c1ccc2c(-c3ccnc(NC4CC4)n3)c(-c3cccc(C(F)(F)F)c3)nn2c1`, the IC50 (usually the point on the concentration scale where inhibition reaches its midpoint) turned out to be 60 nM.
For `Fc1ccc(-c2nn3ccccc3c2-c2ccncn2)cc1`, it took 630 nM to reach half-maximal inhibition (IC50).
For `CN1CCN(CCCNc2nccc(-c3c(-c4ccc(C(F)(F)F)cc4)nn4cc(C(F)(F)F)ccc34)n2)CC1`, 400 nM corresponded to half-maximal inhibition (IC50).
`CN(C)C(=O)c1ccc2c(-c3ccnc(NC4CC4)n3)c(-c3ccc(F)cc3)nn2c1` registered an IC50 of 60 nM.
`Nc1cc(-c2c(-c3ccc(F)cc3)nn3cc(C(F)(F)F)ccc23)ccn1` displayed an IC50 of 100 nM.
Under `OCCCNc1nccc(-c2c(-c3ccc(F)cc3)nn3cc(Cl)ccc23)n1` stands 40 nM.
Under `Cc1cccc2c(-c3ccncn3)c(-c3ccc(F)cc3)nn12` stands 500 nM; under `COc1cccc2c(-c3ccncc3)c(-c3ccc(F)cc3)nn12`, 100 nM.
Under `CCCCNc1cc(-c2c(-c3ccc(F)cc3)nn3cccc(F)c23)ccn1` stands 160 nM.
For the compound `N#Cc1ccc2c(-c3ccnc(NC4CC4)c3)c(-c3ccc(F)cc3)nn2c1`, 50 nM corresponded to half-maximal inhibition (IC50).
In turn, `CN(C)c1cc(-c2c(-c3ccc(F)cc3)nn3ccccc23)ccn1` showed an IC50 of 1000 nM.
The value for `Nc1nccc(-c2c(-c3ccc(F)cc3)nn3ccccc23)n1` was 100 nM; that for `CCCCNc1nccc(-c2c(-c3ccc(F)cc3)nn3c(OCCF)cccc23)n1` was 40 nM; that for `CSc1cccc2c(-c3ccncn3)c(-c3ccc(F)cc3)nn12` was 160 nM.
`NC(=O)c1ccc2c(-c3ccnc(NC4CC4)n3)c(-c3ccc(F)cc3)nn2c1` had an IC50 of 20 nM.
`CN1CCN(CCCNc2nccc(-c3c(-c4ccc(F)cc4)nn4cc(C(F)(F)F)ccc34)n2)CC1`: it took 130 nM to reach half-maximal inhibition (IC50).
The value for `OCCCNc1nccc(-c2c(-c3cccc(C(F)(F)F)c3)nn3cc(C(F)(F)F)ccc23)n1` was 200 nM; that for `Fc1ccc(-c2nn3ccccc3c2-c2ccnc(Nc3ccccc3)c2)cc1` was 160 nM; that for `NC(=O)c1ccc2c(-c3ccnc(NCCCO)n3)c(-c3ccc(F)cc3)nn2c1` [GW581744X] was 10 nM.
The value for `Fc1ccc(-c2nn3ccccc3c2-c2ccnc(NCc3ccccc3)c2)cc1` was 160 nM.
Consider `N#Cc1ccc2c(-c3ccnc(NC4CC4)n3)c(-c3ccc(F)cc3)nn2c1` [GW561436X], for which 30 nM corresponded to half-maximal inhibition (IC50).
Under `CN1CCN(CCCNc2nccc(-c3c(-c4ccc(F)cc4)nn4cc(C(N)=O)ccc34)n2)CC1` stands 40 nM.
Under `CN(C)CCCNc1nccc(-c2c(-c3ccc(C(F)(F)F)cc3)nn3cc(C(F)(F)F)ccc23)n1` stands 1250 nM; under `CC(C)Nc1cc(-c2c(-c3ccc(F)cc3)nn3cc(C(N)=O)ccc23)ccn1`, 80 nM.
Compound `CN(C)CCCNc1nccc(-c2c(-c3cccc(Cl)c3)nn3cc(C(F)(F)F)ccc23)n1` displayed an IC50 of 100 nM.
`CCCCNc1cc(-c2c(-c3ccc(F)cc3)nn3c(OC)cccc23)ccn1` came in with an IC50 of 60 nM.
The value for `Nc1nccc(-c2c(-c3ccc(F)cc3)nn3cc(C(F)(F)F)ccc23)n1` [GW568326X] was 200 nM.
The value for `OCCCNc1nccc(-c2c(-c3ccc(F)cc3)nn3cc(C(F)(F)F)ccc23)n1` was 60 nM.
On to `CN(C)CCCNc1nccc(-c2c(-c3ccc(F)cc3)nn3cc(C(F)(F)F)ccc23)n1`, for which the IC50 came to 630 nM.
Under `CC(C)Nc1nccc(-c2c(-c3ccc(F)cc3)nn3cc(C(F)(F)F)ccc23)n1` stands 40 nM.
